Experimental data published in patent US20240174690A1, “ANNULATED 2-AMINO-3-CYANO THIOPHENES AND DERIVATIVES FOR THE TREATMENT OF CANCER” (BOEHRINGER INGELHEIM INTERNATIONAL GMBH, priority 2021, published 2024).

What was measured:
[1] = Metabolic (microsomal) stability assay, human liver microsomes (HLM); format: in vitro ADME; conditions: predicted clearance as percent of liver blood flow, 1 μM
How it was run: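 LC-MS/MS tracked parent disappearance at 0, 5, 15, 30 and 60 min in NADPH-initiated incubations with 1 mg/mL human microsomal protein and 1 μM compound at 37°C, pH 7.5. First-order fits gave intrinsic clearance, which was scaled up and reported as % QH. NADPH-free controls were also run.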

[2] = system: KRAS G12V-dependent Ba/F3 cells; test: Ba/F3 proliferation assay, KRAS G12V; format: cell-based; conditions: AlamarBlue;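 further: proliferation IC50 in KRAS G12V-dependent Ba/F3 cells read by AlamarBlue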
How it was run: (§1)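 Ba/F3 cells were retrovirally transduced with KRAS G12 mutant vectors, puromycin-selected (1 μg/mL) and grown without IL-3 to make them KRAS-dependent. Compounds were tested in technical duplicates, viability was read by AlamarBlue fluorescence, and values came from curve fitting.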

[3] = system: SAS cells; test: SAS CTG proliferation assay (120 h) (HNSCC, wt amplified); format: cell-based
How it was run: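 SAS cells plated at 300 per well in DMEM:F12 with 10% FCS and left overnight, then given compounds acoustically. After 120 h exposure, viability read by CellTiter-Glo as percent of DMSO control. IC50 from four-parameter non-linear regression.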

[4] = system: KRAS G12C-dependent Ba/F3 cells; test: Ba/F3 proliferation assay, KRAS G12C; format: cell-based; conditions: AlamarBlue
How it was run: as §1

[5] = Plasma protein binding assay (PPB), equilibrium dialysis, 10% FCS in PBS; format: in vitro ADME; conditions: for fraction unbound: bovine, read-out: PPB 10% FCS (% fu)
How it was run: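 Equilibrium dialysis (5-10 kg/mol cut-off membrane) of 1-10 μmol/L test compound in 10% FCS/PBS against PBS with or without dextran, 3-5 h at 37° C. Compound in each chamber quantified by LC-MS after protein precipitation; fu calculated from Cserum and Cbuffer.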

C[C@H](Oc1cc(N2CCN(C)C3(CC3)C2)nc(-c2onc3c2CCC[C@@]32CCCc3sc(N)c(C#N)c32)n1)[C@@H]1CCCN1C [I-41]
HLM QH [1]: <24% | IC50 ([2]; Mus musculus, BaF3, 72 h): 445 nM | IC50 [3]: 4190 nM | IC50 ([4]; Mus musculus, BaF3, 72 h): 233 nM

C[C@H](Oc1cc(N2CCN(CCO)CC2)nc(-c2noc3c2CCC[C@@]32CCCc3sc(N)c(C#N)c32)n1)[C@@H]1CCCN1C [II-8]
HLM QH [1]: <24% | IC50 ([2]; Mus musculus, BaF3, 72 h): 316 nM | IC50 [3]: 534 nM | fraction unbound [5]: 0.17 | IC50 ([4]; Mus musculus, BaF3, 72 h): 301 nM

C[C@H](Oc1cc(N2CC3CCC(C2)N3)nc(-c2noc3c2CCC[C@@]32CCCc3sc(N)c(C#N)c32)n1)[C@@H]1CCCN1C [II-34]
HLM QH [1]: <24% | IC50 ([2]; Mus musculus, BaF3, 72 h): 681 nM | IC50 [3]: 1950 nM | fraction unbound [5]: 0.37 | IC50 ([4]; Mus musculus, BaF3, 72 h): 527 nM

C[C@H]1CN(C)CCCN1c1nc(-c2onc3c2CCC[C@@]32CCCc3sc(N)c(C#N)c32)cc(N2CCN(C)C3(CC3)C2)n1 [I-42]
HLM QH [1]: 42% | IC50 ([4]; Mus musculus, BaF3, 72 h): 867 nM

C[C@H](Oc1nc(-c2noc3c2CCC[C@@]32CCCc3sc(N)c(C#N)c32)cc(N2C[C@H](C)N[C@@H](C)C2)n1)[C@@H]1CCCN1C [II-46]
HLM QH [1]: 27% | IC50 [3]: 399 nM | IC50 ([4]; Mus musculus, BaF3, 72 h): 50 nM

C[C@H](Oc1cc(N2CCN(C)C3(COC3)C2)nc(-c2noc3c2CCC[C@@]32CCCc3sc(N)c(C#N)c32)n1)[C@@H]1CCCN1C [II-13]
HLM QH [1]: <24% | IC50 ([2]; Mus musculus, BaF3, 72 h): 247 nM | IC50 [3]: 450 nM | fraction unbound [5]: 0.24 | IC50 ([4]; Mus musculus, BaF3, 72 h): 120 nM

C[C@H](Oc1cc(-c2cnn(C)n2)nc(-c2noc3c2CCC[C@@]32CCCc3sc(N)c(C#N)c32)n1)[C@@H]1C[C@@H](F)CN1C [II-28]
HLM QH [1]: 51% | IC50 ([2]; Mus musculus, BaF3, 72 h): 27 nM | IC50 [3]: 203 nM | fraction unbound [5]: 0.09 | IC50 ([4]; Mus musculus, BaF3, 72 h): 35 nM

C[C@H](Oc1cc(-n2ccc(C(=O)NC3COC3)n2)nc(-c2noc3c2CCC[C@@]32CCCc3sc(N)c(C#N)c32)n1)[C@@H]1CCCN1C [II-25]
HLM QH [1]: <24% | IC50 ([2]; Mus musculus, BaF3, 72 h): 4 nM | IC50 [3]: 9 nM | fraction unbound [5]: 0.15 | IC50 ([4]; Mus musculus, BaF3, 72 h): 3 nM

C[C@H]1CN(C)CCCN1c1cc(N2CC[C@H](N(C)C)C2)nc(-c2noc3c2CCC[C@@]32CCCc3sc(N)c(C#N)c32)n1 [II-16]
HLM QH [1]: <24% | IC50 ([2]; Mus musculus, BaF3, 72 h): 1640 nM | IC50 [3]: 3870 nM | fraction unbound [5]: 0.16 | IC50 ([4]; Mus musculus, BaF3, 72 h): 1570 nM

C[C@H](Oc1cc(N2C[C@@H](N(C)C)[C@@H](F)C2)nc(-c2noc3c2CCC[C@@]32CCCc3sc(N)c(C#N)c32)n1)[C@@H]1CCCN1C [II-11]
HLM QH [1]: <24% | IC50 ([2]; Mus musculus, BaF3, 72 h): 324 nM | IC50 [3]: 1320 nM | fraction unbound [5]: 0.89 | IC50 ([4]; Mus musculus, BaF3, 72 h): 241 nM

C[C@H](Oc1cc(N2CC[C@H](N3CCCCC3)C2)nc(-c2noc3c2CCC[C@@]32CCCc3sc(N)c(C#N)c32)n1)[C@@H]1CCCN1C [II-12]
HLM QH [1]: <24% | IC50 ([2]; Mus musculus, BaF3, 72 h): 549 nM | IC50 [3]: 1920 nM | fraction unbound [5]: 0.2 | IC50 ([4]; Mus musculus, BaF3, 72 h): 438 nM

C[C@H](Oc1nc(-c2onc3c2CCC[C@@]32CCCc3sc(N)c(C#N)c32)cc(N2CCNC3(CC3)C2)n1)[C@@H]1CCCN1C [I-2]
HLM QH [1]: 44% | fraction unbound [5]: 0.69 | IC50 ([4]; Mus musculus, BaF3, 72 h): 493 nM

C[C@H](Oc1cc(N2CCN(C)CC2)nc(-c2noc3c2CCC[C@@]32CCCc3sc(N)c(C#N)c32)n1)[C@@H]1CCCN1[C@@H]1CCOC1 [II-39]
HLM QH [1]: 52% | IC50 [3]: 2940 nM | fraction unbound [5]: 0.17 | IC50 ([4]; Mus musculus, BaF3, 72 h): 193 nM

C[C@H]1CN(C)CCCN1c1cc(N2CCN(C)CC2)nc(-c2noc3c2CCC[C@@]32CCCc3sc(N)c(C#N)c32)n1 [II-30]
HLM QH [1]: <24% | IC50 [3]: 10600 nM | fraction unbound [5]: 0.64 | IC50 ([4]; Mus musculus, BaF3, 72 h): 1050 nM

C[C@H](Oc1cc(N2CC(N(C)C)C2)nc(-c2noc3c2CCC[C@@]32CCCc3sc(N)c(C#N)c32)n1)[C@@H]1CCCN1C [II-7]
HLM QH [1]: <24% | IC50 ([2]; Mus musculus, BaF3, 72 h): 196 nM | IC50 [3]: 1190 nM | fraction unbound [5]: 0.43 | IC50 ([4]; Mus musculus, BaF3, 72 h): 277 nM

C[C@@H]1CN(c2cc(O[C@@H](C)[C@@H]3CCCN3C)nc(-c3noc4c3CCC[C@@]43CCCc4sc(N)c(C#N)c43)n2)C[C@H](C)N1 [II-36]
HLM QH [1]: <24% | IC50 ([2]; Mus musculus, BaF3, 72 h): 390 nM | IC50 [3]: 179 nM | fraction unbound [5]: 0.57 | IC50 ([4]; Mus musculus, BaF3, 72 h): 330 nM

C[C@H](Oc1cc(N2CCNC(C)(C)C2)nc(-c2noc3c2CCC[C@@]32CCCc3sc(N)c(C#N)c32)n1)[C@@H]1CCCN1C [II-32]
HLM QH [1]: <24% | IC50 ([2]; Mus musculus, BaF3, 72 h): 1220 nM | IC50 [3]: 8310 nM | fraction unbound [5]: 0.31 | IC50 ([4]; Mus musculus, BaF3, 72 h): 474 nM

C[C@H](Oc1cc(-c2ccn3ncnc3c2)nc(-c2onc3c2CCC[C@@]32CCCc3sc(N)c(C#N)c32)n1)[C@@H]1CCCN1C [I-33]
HLM QH [1]: <24% | IC50 ([2]; Mus musculus, BaF3, 72 h): 14 nM | IC50 [3]: 81 nM | fraction unbound [5]: 0.31 | IC50 ([4]; Mus musculus, BaF3, 72 h): 14 nM

C[C@H](Oc1cc([C@H]2CCN(C)C2)nc(-c2noc3c2CCC[C@@]32CCCc3sc(N)c(C#N)c32)n1)[C@@H]1CCCN1C [II-38]
HLM QH [1]: <24% | IC50 ([2]; Mus musculus, BaF3, 72 h): 56 nM | IC50 [3]: 47 nM | fraction unbound [5]: 0.54 | IC50 ([4]; Mus musculus, BaF3, 72 h): 66 nM

C[C@H](Oc1cc(N2C[C@H](C)N(C)[C@@H](C)C2)nc(-c2onc3c2CCC[C@@]32CCCc3sc(N)c(C#N)c32)n1)[C@@H]1CCCN1C [I-43]
HLM QH [1]: <24% | IC50 ([2]; Mus musculus, BaF3, 72 h): 302 nM | IC50 [3]: 1800 nM | fraction unbound [5]: 0.73 | IC50 ([4]; Mus musculus, BaF3, 72 h): 170 nM

C[C@H](Oc1cc(-c2ccn(C)n2)nc(-c2onc3c2CCC[C@@]32CCCc3sc(N)c(C#N)c32)n1)[C@@H]1CCCN1C [I-21]
HLM QH [1]: 44% | IC50 ([2]; 72 h): 6 nM | IC50 [3]: 40 nM | PPB 10% FCS (% fu) ([5]; fraction unbound): 83 % fu | IC50 ([4]; 72 h): 6 nM

C[C@H](Oc1cc(N2CC[C@H](N(C)C)C2)nc(-c2noc3c2CCC[C@@]32CCCc3sc(N)c(C#N)c32)n1)[C@@H]1C[C@@H](F)CN1C [II-15]
HLM QH [1]: <24% | IC50 ([2]; Mus musculus, BaF3, 72 h): 340 nM | IC50 [3]: 1300 nM | fraction unbound [5]: 0.64 | IC50 ([4]; Mus musculus, BaF3, 72 h): 323 nM

C[C@H](Oc1nc(-c2onc3c2CCC[C@@]32CCCc3sc(N)c(C#N)c32)cc(N2CCN(C)C3(CC3)C2)n1)[C@@H]1CCCN1C [I-40]
HLM QH [1]: 42% | fraction unbound [5]: 0.51 | IC50 ([4]; Mus musculus, BaF3, 72 h): 913 nM

C[C@H](Oc1cc(-n2ccsc2=O)nc(-c2noc3c2CCC[C@@]32CCCc3sc(N)c(C#N)c32)n1)[C@@H]1CCCN1C [II-135]
HLM QH [1]: 54% | IC50 ([2]; Mus musculus, BaF3, 72 h): 4 nM | IC50 [3]: 69 nM | fraction unbound [5]: 0.06 | IC50 ([4]; Mus musculus, BaF3, 72 h): 4 nM

C[C@H](Oc1cc(N2C[C@H]3CN(C)C[C@H]3C2)nc(-c2noc3c2CCC[C@@]32CCCc3sc(N)c(C#N)c32)n1)[C@@H]1CCCN1C [II-33]
HLM QH [1]: <24% | IC50 ([2]; Mus musculus, BaF3, 72 h): 657 nM | IC50 [3]: 597 nM | fraction unbound [5]: 0.68 | IC50 ([4]; Mus musculus, BaF3, 72 h): 527 nM

C[C@H](Oc1cc(-n2ccc(C(=O)O)n2)nc(-c2noc3c2CCC[C@@]32CCCc3sc(N)c(C#N)c32)n1)[C@@H]1CCCN1C [II-24]
HLM QH [1]: <24% | IC50 ([2]; Mus musculus, BaF3, 72 h): 8110 nM | IC50 [3]: 15600 nM | fraction unbound [5]: 0.48 | IC50 ([4]; Mus musculus, BaF3, 72 h): 9220 nM

C[C@H](Oc1cc([C@@H]2CCN(C)C2)nc(-c2noc3c2CCC[C@@]32CCCc3sc(N)c(C#N)c32)n1)[C@@H]1CCCN1C [II-37]
HLM QH [1]: <24% | IC50 ([2]; Mus musculus, BaF3, 72 h): 177 nM | IC50 [3]: 1250 nM | fraction unbound [5]: 0.71 | IC50 ([4]; Mus musculus, BaF3, 72 h): 132 nM

C[C@H](Oc1cc(N2CC[C@H](N3CCCC3)C2)nc(-c2noc3c2CCC[C@@]32CCCc3sc(N)c(C#N)c32)n1)[C@@H]1CCCN1C [II-14]
HLM QH [1]: <24% | IC50 ([2]; Mus musculus, BaF3, 72 h): 771 nM | IC50 [3]: 1670 nM | fraction unbound [5]: 0.16 | IC50 ([4]; Mus musculus, BaF3, 72 h): 293 nM
